# Measured values reported in US9708334B2, “Substituted 2,4,5,6-tetrahydropyrrolo[3,4-c]pyrazole and 4,5,6,7-tetrahydro-2H-pyrazolo[4,3-c]pyridine compounds as GlyT1 inhibitors” (DART NEUROSCIENCE (CAYMAN) LTD., priority 2014, dated 2017).
# Target: T1, GlyT1 (Homo sapiens, UniProt P48067)
# T1 construct: expressed in transfected cells
# T1 sequence (P48067 1-706): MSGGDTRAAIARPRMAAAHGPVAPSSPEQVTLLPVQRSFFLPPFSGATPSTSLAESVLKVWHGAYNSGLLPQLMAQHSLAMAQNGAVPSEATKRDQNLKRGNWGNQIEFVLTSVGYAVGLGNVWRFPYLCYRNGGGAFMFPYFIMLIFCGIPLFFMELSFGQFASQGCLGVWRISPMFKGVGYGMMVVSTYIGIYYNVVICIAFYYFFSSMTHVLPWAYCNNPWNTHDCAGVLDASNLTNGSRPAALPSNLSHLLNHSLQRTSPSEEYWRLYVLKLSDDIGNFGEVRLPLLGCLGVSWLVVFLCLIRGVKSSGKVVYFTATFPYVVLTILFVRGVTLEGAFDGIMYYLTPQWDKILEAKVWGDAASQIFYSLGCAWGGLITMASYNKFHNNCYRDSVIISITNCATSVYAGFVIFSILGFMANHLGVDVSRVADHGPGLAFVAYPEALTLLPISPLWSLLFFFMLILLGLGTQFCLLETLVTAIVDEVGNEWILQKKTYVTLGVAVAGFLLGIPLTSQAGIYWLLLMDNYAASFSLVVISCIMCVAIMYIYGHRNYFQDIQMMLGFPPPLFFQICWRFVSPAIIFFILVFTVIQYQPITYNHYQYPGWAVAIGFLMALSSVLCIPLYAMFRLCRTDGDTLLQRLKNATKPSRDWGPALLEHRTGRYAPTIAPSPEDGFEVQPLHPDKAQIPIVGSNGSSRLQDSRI
# Experiment: Glycine Transporter 1 (GlyT1) uptake assay, scintillation proximity assay of [14C]-glycine uptake
# Type: cell-based
# Details: SPA, four parameter logistic fit, read-out: GlyT1 (pIC50) (converted)
# Procedure, shortened: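 [14C]-glycine uptake read by scintillation proximity on a plate counter. IC50 from four-parameter logistic fit of dose-response data.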
row,SMILES,IC50 [nM]
1,"COc1c(C#N)ccc(OCC(C)(C)C)c1C(=O)N1Cc2cn(-c3cncc(F)c3)nc2C1 [Example 321, 4-(2 2-Dimethylpropoxy)-3-[2-(5-fluoropyridin-3-yl)-2H 4H 5H 6H-pyrrolo[3,4-c]pyrazole-5-carbonyl]-2-methoxybenzonitrile]",< 100
2,"C[C@H](Oc1ccc(C#N)cc1C(=O)N1Cc2cn(C3CCC(F)(F)CC3)nc2C1)C(F)(F)F [Example 472, 3-[2-(4 4-Difluorocyclohexyl)-2H 4H 5H 6H-pyrrolo[3,4-c]pyrazole-5-carbonyl]-4-{[(2S)-1 1 1-trifluoropropan-2-yl]oxy}benzonitrile]",100 to 1000
3,"COc1c(C#N)ccc(O[C@@H](C)C(F)(F)F)c1C(=O)N1Cc2cn(-c3cn(C)c(C)n3)nc2C1 [Example 280, 3-[2-(1 2-Dimethyl-1H-imidazol-4-yl)-2H 4H 5H 6H-pyrrolo[3,4-c]pyrazole-5-carbonyl]-2-methoxy-4-{[(2S)-1 1 1-trifluoropropan-2-yl]oxy}benzonitrile]",100 to 1000
4,"Cc1cccc(-n2cc3c(n2)CN(C(=O)c2cc(S(C)(=O)=O)ccc2O[C@@H](C)C(F)(F)F)C3)c1F [Example 42, 2-(2-Fluoro-3-methylphenyl)-5-(5-methanesulfonyl-2-{[(2S)-1 1 1-trifluoropropan-2-yl]oxy}benzoyl)-2H 4H 5H 6H-pyrrolo[3,4-e]pyrazole]",< 100
5,"COc1c(C#N)ccc(C2(F)CCOCC2)c1C(=O)N1Cc2cn(-c3ccc(F)cc3)nc2C1 [Example 27, 4-(4-Fluorooxan-4-yl)-3-[2-(4-fluorophenyl)-2H 4H 5H 6H-pyrrolo[3,4-c]pyrazole-5-carbonyl]-2-methoxybenzonitrile]",< 100
6,"CC(C)Oc1ccc(S(=O)(=O)C(C)C)cc1C(=O)N1Cc2cn(-c3ccc(F)cc3)nc2C1 [Example 98, 2-(4-Fluorophenyl)-5-[2-(propan-2-yloxy)-5-(propane-2-sulfonyl)benzoyl]-2H 4H 5H 6H-pyrrolo[3,4-c]pyrazole]",100 to 1000
7,COc1c(C#N)ccc(O[C@@H](C)C(F)(F)F)c1C(=O)N1Cc2cn(-c3cccc(C)n3)nc2C1 [Example 253],< 100
8,"CS(=O)(=O)c1ccc(-c2ccccc2F)c(C(=O)N2Cc3cn(-c4ccccc4F)nc3C2)c1 [Example 559, 2-(2-Fluorophenyl)-5-[2-(2-fluorophenyl)-5-methanesulfonylbenzoyl]-2H 4H 5H 6H-pyrrolo[3,4-c]pyrazole]",< 100
9,"N#Cc1ccc(C2(F)CCOCC2)c(C(=O)N2CCc3nn(-c4ccc(F)cc4)cc3C2)c1F [Example 199, 2-Fluoro-4-(4-fluorooxan-4-yl)-3-[2-(4-fluorophenyl)-2H 4H 5H 6H 7H-pyrazolo[4,3-c]pyridine-5-carbonyl]benzonitrile]",1000 to 10000
10,"COc1c(C#N)ccc(OCC(F)F)c1C(=O)N1Cc2cn(-c3ccc(F)cn3)nc2C1 [Example 330, 4-(2 2-Difluoroethoxy)-3-[2-(5-fluoropyridin-2-yl)-2H 4H 5H 6H-pyrrolo[3,4-c]pyrazole-5-carbonyl]-2-methoxybenzonitrile]",100 to 1000
11,"Cc1nc(-n2cc3c(n2)CN(C(=O)c2cc(C#N)ccc2O[C@@H](C)C(F)(F)F)C3)ccc1F [Example 345, 3-[2-(5-Fluoro-6-methylpyridin-2-yl)-2H 4H 5H 6H-pyrrolo[3,4-c]pyrazole-5-carbonyl]-4-{[(2S)-1 1 1-trifluoropropan-2-yl]oxy}benzonitrile]",100 to 1000
12,"Cc1cc(-n2cc3c(n2)CN(C(=O)c2cc(C#N)ccc2-c2cccc(C(F)(F)F)c2)C3)ccn1 [Example 565, 3-[2-(2-Methylpyridin-4-yl)-2H 4H 5H 6H-pyrrolo[3,4-c]pyrazole-5-carbonyl]-4-[3-(trifluoromethyl)phenyl]benzonitrile]",1000 to 10000
13,"COc1c(C#N)ccc(OCC2(C)CC2)c1C(=O)N1Cc2cn(-c3ccc(F)cc3)nc2C1 [Example 512, 3-[2-(4-Fluorophenyl)-2H 4H 5H 6H-pyrrolo[3,4-c]pyrazole-5-carbonyl]-2-methoxy-4-[(1-methylcyclopropyl)methoxy]benzonitrile]",< 100
14,"Cc1cccc(-n2cc3c(n2)CN(C(=O)c2cc(S(C)(=O)=O)ccc2OCC2(C)COC2)C3)c1 [Example 437, 5-{5-Methanesulfonyl-2-[(3-methyloxetan-3-yl)methoxy]benzoyl}-2-(3-methylphenyl)-2H 4H 5H 6H-pyrrolo[3,4-c]pyrazole]",< 100
15,"CS(=O)(=O)c1ccc(OCC(F)(F)F)c(C(=O)N2Cc3cn(-c4ccccc4F)nc3C2)c1 [Example 104, 2-(2-Fluorophenyl)-5-[5-methanesulfonyl-2-(2 2 2-trifluoroethoxy)benzoyl]-2H 4H 5H 6H-pyrrolo[3,4-c]pyrazole]",< 100
16,"COc1c(C#N)ccc(O[C@@H](C)C(F)(F)F)c1C(=O)N1Cc2cnn(-c3ccc(C#N)cc3)c2C1 [Example 284, 3-[1-(4-Cyanophenyl)-1H 4H 5H 6H-pyrrolo[3,4-c]pyrazole-5-carbonyl]-2-methoxy-4-{[(2S)-1 1 1-trifluoropropan-2-yl]oxy}benzonitrile]",< 100
17,"Cc1cccc(-n2cc3c(n2)CN(C(=O)c2cc(S(=O)(=O)C(C)C)ccc2OC(C)C)C3)c1F [Example 94, 2-(2-Fluoro-3-methylphenyl)-5-[2-(propan-2-yloxy)-5-(propane-2-sulfonyl)benzoyl]-2H 4H 5H 6H-pyrrolo[3,4-c]pyrazole]",1000 to 10000
18,COc1c(C#N)ccc(C2(F)CCOCC2)c1C(=O)N1CCc2nn(-c3ccc(F)cc3)cc2C1 [Example 492],100 to 1000
19,"COc1c(C#N)ccc(O[C@@H](C)C(F)(F)F)c1C(=O)N1Cc2cn(-c3ccc(C(F)(F)F)cn3)nc2C1 [Example 285, 2-Methoxy-3-{2-[5-(trifluoromethyl)pyridin-2-yl]-2H 4H 5H 6H-pyrrolo[3,4-apyrazole-5-carbonyl}-4-{1(2S)-1 1 1-trifluoropropan-2-yl]oxy}benzonitrile]",100 to 1000
20,"CC(Oc1ccc(S(C)(=O)=O)cc1C(=O)N1CCc2c(cnn2-c2ccccc2)C1)C(F)(F)F (stereo not drawn) [Example 164, 5-{5-Methanesulfonyl-2-[(1 1 1-trifluoropropan-2-yl)oxy]benzoyl}-1-phenyl-1H 4H 5H 6H 7H-pyrazolo[4,3-c]pyridine]",100 to 1000
21,"COc1c(C#N)ccc(OC(C)C(F)(F)F)c1C(=O)N1CCc2nn(-c3ccc(F)cc3)cc2C1 (stereo not drawn) [Example 4, 3-(2-(4-Fluorophenyl)-4,5,6,7-tetrahydro-2H-pyrazolo[4,3-c]pyridine-5-carbonyl)-2-methoxy-4-((1,1,1-trifluoropropan-2-yl)oxy)benzonitrile]",100 to 1000
22,"N#Cc1ccc(C2(F)COC2)c(C(=O)N2CCc3nn(-c4ccccc4)cc3C2)c1F [Example 178, 2-Fluoro-4-(3-fluorooxetan-3-yl)-3-{2-phenyl-2H 4H 5H 6H 7H-pyrazolo[4,3-c]pyridine-5-carbonyl}benzonitrile]",> 10000
23,"COc1cccc(-n2cc3c(n2)CN(C(=O)c2c(O[C@@H](C)C(F)(F)F)ccc(C#N)c2Cl)C3)n1 [Example 276, 2-Chloro-3-[2-(6-methoxypyridin-2-yl)-2H 4H 5H 6H-pyrrolo[3,4-c]pyrazole-5-carbonyl]-4-{[(2S)-1 1 1-trifluoropropan-2-yl]oxy}benzonitrile]",< 100
24,"CC(C)Oc1ccc(C#N)cc1C(=O)N1Cc2cn(CC3CC3(F)F)nc2C1 (stereo not drawn) [Example 456, 3-{2-[(2 2-Difluorocyclopropyl)methyl]-2H 4H 5H 6H-pyrrolo[3,4-c]pyrazole-5-carbonyl}-4-(propan-2-yloxy)benzonitrile]",100 to 1000
